Where a SMILES comes first, the peptide text is derived from it. Bridges are numbered along the chain shown (N, C = ends). [ ]: non-standard residue; d: D form. NMeA = CN[C@@H](C)C(=O)O; Nle = CCCC[C@H](N)C(=O)O
Key:
[1] = system: guinea pig tracheal smooth muscle; experiment: Tracheal relaxant activity of VIP analogs on isolated guinea pig tracheal rings; format: cell-based; settings: cumulative concentration response, relaxation as % of maximum response to VIP (10^-6 M=100%), three tissues pooled, linear regression
Protocol: The relaxant activity of the VIP analogs were studied in a model utilizing guinea pig trachea. [Wasserman, M. A. et al., in Vasoactive Intestinal Peptide, S. I. Said, ed., Raven Press, New York 1982, pp 177-184] All tissues were taken from male albino guinea pig weighing 400-600 g, anesthetized with urethane (2 g/kg, i.p.). After exanguination, the trachea were removed and divided into four ring segments (3 mm length). Each ring was suspended by 30 gauge stainless steel wires in a 10 mL jacketed tissue bath and attached via 4-0 silk thread to a GRASS force displacement transducer (model FT03C, Grass Instruments Co., Quincy, Mass.), for isometric recording of tension. The smooth muscle was bathed in modified Krebs solution of the following composition: NaCl, 120 mM; KCl, 4.7 mM; CaCl2, 2.5 mM; MgSO4.7H2 O, 1.2 mM; NaHCO3, 25 mM; K2 HPO4 monobasic, 1.2 mM; and dextrose, 10 mM. Tissue baths were maintained at 37° C. and constantly bubbled with 95% O2 and 5% CO2. Responses were recorded on an 8 channel and a 4 channel HEWLETT-PACKARD (model 7702B and 7754A, respectively) recorder (Hewlett- Packard, Paramus, N.J.). Tracheal rings were placed under a resting tension of 1.5 g which was determined to be at or near optimal in preliminary experiments. Frequent readjustments of tension were required during the 60 minute stabilization period which followed. Tissues were rinsed at 15 minute intervals.
Cumulative concentration response curves were obtained for each tissue by successive […] increases in the bath concentration of VIP or VIP analogs according to the method of VanRossum [Arch. Int. Pharmacodyn., 143, 299-330 (1963)]. Only one cumulative dose response curve was obtained on a single tissue. To minimize variability between tissues, relaxant responses were expressed as a percentage of the maximum response obtained to VIP (10^-6 M=100%) added at the end of each concentration response experiment. Responses obtained from three tissues were pooled and EC50 values were determined by linear regression.
The results summarized in Table I show the tracheal relaxant activity of the VIP analogs in comparison to native VIP.

[2] = system: guinea pigs; experiment: In vivo bronchodilator activity by tracheal instillation against histamine challenge; set-up: species or system guinea pig; settings: anesthetized male guinea pigs, inhibition of histamine (i.v.)-induced rise in tracheal pressure
Protocol: The in vivo bronchodilator activity of VIP and VIP analogs in guinea pigs was assessed by the tracheal instillation route of administration. This technique utilized male guinea pigs (Hartley strain, Charles River) weighing 400-600 g. Animals were anesthetized with urethane (2 g/kg) intraperitoneally and a polyethylene cannula was inserted into the jugular vein for intraveneous drug administration.
The animals were tracheotomized and dosing solutions of distilled water or test compound dissolved in distilled water were administered into the trachea, approximately three-quarters the distance to the carina with a pipette. The concentration of the dosing solution was adjusted to deliver a constant volume of […]. The animals were placed supine for one minute to aid drug delivery to the lung. One minute later, spontaneous breathing was arrested with succinylcholine chloride (1.2 mg/kg) administered intraveneously, and the animals were ventilated with a HARVARD Model 680 small animal respirator set at 40 breaths/min and 4.0 cm^3 stroke volume. The animals were challenged with a maximal constrictory dose of histamine ([…], i.v.) and tracheal pressure (cm of water) was recorded from a STATHAM pressure transducer (P 32 AA).
The change in tracheal pressure was averaged for at least 3 control and 3 drug-treated animals and percent inhibition was calculated. The relative potency of compounds administered by the instillation route was determined by administering various doses of test compound and calculating the median effective dose (ED50 value). The ED50 was determined from log dose-response curves generated by at least 3 doses that caused inhibitory effects between 10% and 90%. The correlation coefficients for the regression line of each compound was always greater than 0.95.
For determination of the time course of inhibition for various compounds, the time between administration of compound and challenge with histamine was varied. The time course of activity was calculated as the time when inhibition decreased to 40%.
The results summarized in Table II show the in vivo bronchodilator activity of the VIP analogs in comparison to native VIP.

| Structure (SMILES) | EC50 [1] [nM] | Bronchodilator activity of VIP analogs in guinea pigs, ED50 [2] [μg] |
| --- | --- | --- |
| CCCC[C@H](NC(=O)[C@H](CCC(N)=O)NC(=O)[C@H](CCCCN)NC(=O)[C@H](CCCNC(=N)N)NC(=O)[C@H](CC(C)C)NC(=O)[C@H](CCCCN)NC(=O)[C@@H](NC(=O)[C@H](Cc1ccc(O)cc1)NC(=O)[C@H](CC(N)=O)NC(=O)[C@H](CC(=O)O)NC(=O)[C@@H](NC(=O)[C@H](Cc1ccccc1)NC(=O)[C@@H](NC(=O)[C@H](C)NC(=O)[C@H](CC(=O)O)NC(=O)[C@H](CO)NC(=O)[C@H](C)N(C)C(C)=O)C(C)C)[C@@H](C)O)[C@@H](C)O)C(=O)N[C@@H](C)C(=O)N[C@@H](C)C(=O)N[C@@H](CCCCN)C(=O)N[C@H]1CCCCNC(=O)C[C@@H](C(=O)N[C@@H](CC(C)C)C(=O)N[C@@H](CCCCN)C(=O)N[C@@H](CCCCN)C(N)=O)NC(=O)[C@H](CC(N)=O)NC(=O)[C@H](CC(C)C)NC(=O)[C@H](Cc2ccc(O)cc2)NC1=O [SEQ ID NO:39, Ac-[N-Me-Ala^1,Lys^12,Nle^17,Ala^19,Asp^25,Leu^26,Lys^27,28]-VIP cyclo (Lys^21 →Asp^25)] (Ac-[NMeA]SDAVFTDNYTKLRKQ[Nle]AAKKYLNDLKK-NH2; lactam 21-25) | 0.95 | 0.06 |
| CCCC[C@H](NC(=O)[C@H](CCC(N)=O)NC(=O)[C@H](CCCCN)NC(=O)[C@H](CCCNC(=N)N)NC(=O)[C@H](CC(C)C)NC(=O)[C@H](CCCCN)NC(=O)[C@@H](NC(=O)[C@H](Cc1ccc(O)cc1)NC(=O)[C@H](CC(N)=O)NC(=O)[C@H](C)NC(=O)[C@@H](NC(=O)[C@H](Cc1ccccc1)NC(=O)[C@@H](NC(=O)[C@H](C)NC(=O)[C@H](CC(=O)O)NC(=O)[C@H](CO)NC(=O)[C@H](Cc1c[nH]cn1)NC(C)=O)C(C)C)[C@@H](C)O)[C@@H](C)O)C(=O)N[C@@H](C)C(=O)N[C@@H](C)C(=O)N[C@@H](CCCCN)C(=O)N[C@H]1CCCCNC(=O)C[C@@H](C(=O)N[C@@H](CC(C)C)C(=O)N[C@@H](CCCCN)C(=O)N[C@@H](CCCCN)C(N)=O)NC(=O)[C@H](C)NC(=O)[C@H](CC(C)C)NC(=O)[C@H](Cc2ccc(O)cc2)NC1=O [SEQ ID NO:59, Ac-[Ala^8,Lys^12,Nle^17,Ala^19,Ala^24,Asp^25,Leu^26,Lys^27,28]-VIP cyclo (Lys^21 →Asp^25)] (Ac-HSDAVFTANYTKLRKQ[Nle]AAKKYLADLKK-NH2; lactam 21-25) | 1.1 | 0.17 |
| CCCC[C@H](NC(=O)[C@H](C)NC(=O)[C@H](CCCCN)NC(=O)[C@H](CCCNC(=N)N)NC(=O)[C@H](CC(C)C)NC(=O)[C@H](CCCCN)NC(=O)[C@@H](NC(=O)[C@H](Cc1ccc(O)cc1)NC(=O)[C@H](CC(N)=O)NC(=O)[C@H](C)NC(=O)[C@@H](NC(=O)[C@H](Cc1ccccc1)NC(=O)[C@@H](NC(=O)[C@H](C)NC(=O)[C@H](CC(=O)O)NC(=O)[C@H](CO)NC(=O)[C@H](Cc1c[nH]cn1)NC(C)=O)C(C)C)[C@@H](C)O)[C@@H](C)O)C(=O)N[C@@H](C)C(=O)N[C@@H](C)C(=O)N[C@@H](CCCCN)C(=O)N[C@H]1CCCCNC(=O)C[C@@H](C(=O)N[C@@H](CC(C)C)C(=O)N[C@@H](CCCCN)C(=O)N[C@@H](CCCCN)C(N)=O)NC(=O)[C@H](C)NC(=O)[C@H](CC(C)C)NC(=O)[C@H](Cc2ccc(O)cc2)NC1=O [SEQ ID NO:61, Ac-[Ala^8,Lys^12,Ala^16,Nle^17,Ala^19,Ala^24,Asp^25,Leu^26,Lys^27,28]-VIP cyclo (Lys^21 →Asp^25)] (Ac-HSDAVFTANYTKLRKA[Nle]AAKKYLADLKK-NH2; lactam 21-25) | 2.4 | 0.045 |
| CCCC[C@H](NC(=O)[C@H](CCC(N)=O)NC(=O)[C@H](CCCCN)NC(=O)[C@H](CCCNC(=N)N)NC(=O)[C@H](CC(C)C)NC(=O)[C@H](CCCCN)NC(=O)[C@@H](NC(=O)[C@H](Cc1ccc(OC)cc1)NC(=O)[C@H](CC(N)=O)NC(=O)[C@H](CC(=O)O)NC(=O)[C@@H](NC(=O)[C@H](Cc1ccccc1)NC(=O)[C@@H](NC(=O)[C@H](C)NC(=O)[C@H](CC(=O)O)NC(=O)[C@H](CO)NC(=O)[C@H](Cc1c[nH]cn1)NC(C)=O)C(C)C)[C@@H](C)O)[C@@H](C)O)C(=O)N[C@@H](C)C(=O)N[C@@H](C)C(=O)N[C@@H](CCCCN)C(=O)N[C@H]1CCCCNC(=O)C[C@@H](C(=O)N[C@H](C(=O)N[C@@H](CC(C)C)C(=O)N[C@H](C(N)=O)[C@@H](C)O)C(C)C)NC(=O)[C@H](CC(N)=O)NC(=O)[C@H](CC(C)C)NC(=O)[C@H](Cc2ccc(O)cc2)NC1=O [SEQ ID NO:41, Ac-[O-Me-Tyr^10,Lys^12,Nle^17,Ala^19,Asp^25,Val^26,Thr^28]-VIP cyclo (Lys^21 →Asp^25)] (Ac-HSDAVFTDNY(Me)TKLRKQ[Nle]AAKKYLNDVLT-NH2; lactam 21-25) | 2.6 | – |

Stronger by EC50 [1], values ahead:

| EC50 [1] [nM] | Structure (SMILES) | Bronchodilator activity of VIP analogs in guinea pigs, ED50 [2] [μg] |
| --- | --- | --- |
| 0.61 | CCCC[C@H](NC(=O)[C@H](CCC(N)=O)NC(=O)[C@H](CCCCN)NC(=O)[C@H](CCCNC(=N)N)NC(=O)[C@H](CC(C)C)NC(=O)[C@H](CCCCN)NC(=O)[C@@H](NC(=O)[C@H](Cc1ccc(O)cc1)NC(=O)[C@H](CC(N)=O)NC(=O)[C@H](CCC(=O)O)NC(=O)[C@@H](NC(=O)[C@H](Cc1ccccc1)NC(=O)[C@@H](NC(=O)[C@H](C)NC(=O)[C@H](CC(=O)O)NC(=O)[C@H](CO)NC(=O)[C@H](Cc1c[nH]cn1)NC(C)=O)C(C)C)[C@@H](C)O)[C@@H](C)O)C(=O)N[C@@H](C)C(=O)N[C@@H](C)C(=O)N[C@@H](CCCCN)C(=O)N[C@H]1CCCCNC(=O)C[C@@H](C(=O)N[C@@H](CC(C)C)C(=O)N[C@@H](CCCCN)C(=O)N[C@@H](CCCCN)C(=O)N[C@@H](C)C(=O)N[C@@H](C)C(=O)N[C@@H](C)C(N)=O)NC(=O)[C@H](CC(N)=O)NC(=O)[C@H](CC(C)C)NC(=O)[C@H](Cc2ccc(O)cc2)NC1=O [SEQ ID NO:42, Ac-[Glu^8,Lys^12,Nle^17,Ala^19,Asp^25,Leu^26,Lys^27,28,Ala^29-31]-VIP cyclo (Lys^21 →Asp^25)] (Ac-HSDAVFTENYTKLRKQ[Nle]AAKKYLNDLKKAAA-NH2; lactam 21-25) | 0.072 |
| 0.36 | CCCC[C@H](NC(=O)[C@H](CCC(N)=O)NC(=O)[C@H](CCCCN)NC(=O)[C@H](CCCNC(=N)N)NC(=O)[C@H](CC(C)C)NC(=O)[C@H](CCCCN)NC(=O)[C@@H](NC(=O)[C@H](Cc1ccc(O)cc1)NC(=O)[C@H](CC(N)=O)NC(=O)[C@H](CCC(=O)O)NC(=O)[C@@H](NC(=O)[C@H](Cc1ccccc1)NC(=O)[C@@H](NC(=O)[C@H](C)NC(=O)[C@H](CC(=O)O)NC(=O)[C@H](CO)NC(=O)[C@H](C)N(C)C(C)=O)C(C)C)[C@@H](C)O)[C@@H](C)O)C(=O)N[C@@H](C)C(=O)N[C@@H](C)C(=O)N[C@@H](CCCCN)C(=O)N[C@H]1CCCCNC(=O)C[C@@H](C(=O)N[C@@H](CC(C)C)C(=O)N[C@@H](CCCCN)C(=O)N[C@@H](CCCCN)C(N)=O)NC(=O)[C@H](CC(N)=O)NC(=O)[C@H](CC(C)C)NC(=O)[C@H](Cc2ccc(O)cc2)NC1=O [SEQ ID NO:44, Ac-[N-Me-Ala^1,Glu^8,Lys^12,Nle^17,Ala^19,Asp^25,Leu^26,Lys^27,28]-VIP cyclo (Lys^21 →Asp^25)] (Ac-[NMeA]SDAVFTENYTKLRKQ[Nle]AAKKYLNDLKK-NH2; lactam 21-25) | 0.097 |
